Columns and labels:
Assay in all cases: relative viability (nuclei count vs DMSO), 5 days (fraction); higher = more cells survive
[1] = compound: CS(=O)(=O)N1CCN(Cc2cc3nc(-c4cccc5[nH]ncc45)nc(N4CCOCC4)c3s2)CC1 [Pictilisib] + CC1(C)CCC(c2ccc(Cl)cc2)=C(CN2CCN(c3ccc(C(=O)NS(=O)(=O)c4ccc(N[C@H](CCN5CCOCC5)CSc5ccccc5)c(S(=O)(=O)C(F)(F)F)c4)cc3)CC2)C1 [Navitoclax] (partner 0.5 µM)
In short: (§1)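 Lung cancer cell lines were pin-tool dosed in 1536-well plates on the day after seeding, with either a lone drug or a fixed anchor-drug dose plus five library-drug doses (not always all listed) in √10 steps. Nuclei were counted on 4× images after 5 days. Relative viability is the ratio of treated-well to vehicle-well nuclei counts, with each value a median of duplicate plates.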

[2] = compound: CS(=O)(=O)N1CCN(Cc2cc3nc(-c4cccc5[nH]ncc45)nc(N4CCOCC4)c3s2)CC1 [Pictilisib] + COc1cc2c(Oc3ccc(NC(=O)C4(C(=O)Nc5ccc(F)cc5)CC4)cc3F)ccnc2cc1OCCCN1CCOCC1 [Foretinib] (partner 0.25 µM)
In short: as §1

[3] = compound: CS(=O)(=O)N1CCN(Cc2cc3nc(-c4cccc5[nH]ncc45)nc(N4CCOCC4)c3s2)CC1 [Pictilisib] + Nc1ncn([C@H]2C[C@H](O)[C@@H](CO)O2)c(=O)n1 [Decitabine] (partner 2 µM)
In short: as §1

[4] = compound: NC1(c2ccc(-c3nc4ccn5c(=O)[nH]nc5c4cc3-c3ccccc3)cc2)CCC1 [MK-2206] + CC(=O)Nc1cccc(-n2c(=O)n(C3CC3)c(=O)c3c(Nc4ccc(I)cc4F)n(C)c(=O)c(C)c32)c1 [Trametinib] (partner 0.02 µM)
In short: as §1

[5] = compound: NC1(c2ccc(-c3nc4ccn5c(=O)[nH]nc5c4cc3-c3ccccc3)cc2)CCC1 [MK-2206] + CC1(C)CCC(c2ccc(Cl)cc2)=C(CN2CCN(c3ccc(C(=O)NS(=O)(=O)c4ccc(N[C@H](CCN5CCOCC5)CSc5ccccc5)c(S(=O)(=O)C(F)(F)F)c4)cc3)CC2)C1 [Navitoclax] (partner 0.5 µM)
In short: as §1

Cell Line | relative viability ([1]; first compound 0.02 µM) | relative viability ([1]; first compound 0.06325 µM) | relative viability ([1]; first compound 0.6325 µM) | relative viability ([1]; first compound 2 µM) | relative viability ([2]; first compound 0.02 µM) | relative viability ([2]; first compound 0.06325 µM) | relative viability ([2]; first compound 0.6325 µM) | relative viability ([2]; first compound 2 µM) | relative viability ([3]; first compound 0.02 µM) | relative viability ([3]; first compound 0.06325 µM) | relative viability ([3]; first compound 0.6325 µM) | relative viability ([3]; first compound 2 µM) | relative viability ([4]; first compound 0.01 µM) | relative viability ([4]; first compound 0.03162 µM) | relative viability ([4]; first compound 0.3162 µM) | relative viability ([4]; first compound 1 µM) | relative viability ([5]; first compound 0.01 µM) | relative viability ([5]; first compound 0.03162 µM) | relative viability ([5]; first compound 0.3162 µM) | relative viability ([5]; first compound 1 µM)
NCI-H1651 | 1.02 | 0.926 | 0.9 | 0.53 | 0.764 | 0.609 | 0.678 | 0.572 | 0.473 | 0.603 | 0.505 | 0.413 | 0.797 | 0.849 | 0.853 | 0.819 | 0.994 | 1.05 | 1.02 | 0.998
COR-L 105 | 0.739 | 0.77 | 0.679 | 0.521 | 1.08 | 1.09 | 0.996 | 0.49 | 0.681 | 0.656 | 0.62 | 0.541 | 0.451 | 0.439 | 0.381 | 0.433 | 0.82 | 0.741 | 0.815 | 0.481
RERF-LC-KJ | 0.93 | 0.728 | 0.91 | 0.5 | 0.879 | 0.847 | 0.709 | 0.627 | 0.711 | 0.618 | 0.54 | 0.479 | 0.808 | 0.903 | 0.725 | 0.718 | 0.836 | 1.28 | 0.708 | 0.69
NCI-H1793 | 0.397 | 0.388 | 0.308 | 0.171 | 0.563 | 0.448 | 0.415 | 0.21 | 0.436 | 0.518 | 0.343 | 0.239 | 0.4 | 0.433 | 0.298 | 0.391 | 0.521 | 0.475 | 0.352 | 0.463
NCI-H1993 | 0.943 | 0.845 | 0.664 | 0.637 | 0.678 | 0.613 | 0.69 | 0.599 | 0.692 | 0.483 | 0.459 | 0.458 | 0.61 | 0.422 | 0.43 | 0.419 | 0.901 | 0.801 | 0.678 | 0.649
LXF-289 | 0.97 | 0.935 | 0.992 | 0.827 | 1.01 | 0.931 | 0.957 | 0.926 | 0.361 | 0.4 | 0.337 | 0.443 | 0.65 | 0.699 | 0.68 | 0.663 | 0.914 | 1.01 | 1.01 | 0.972
LU99A | 0.818 | 0.638 | 0.574 | 0.361 | 1.04 | 0.866 | 0.674 | 0.464 | 0.969 | 0.919 | 0.901 | 0.441 | 0.524 | 0.537 | 0.473 | 0.553 | 0.862 | 0.77 | 0.72 | 0.822
SW 1573 | 0.804 | 0.951 | 0.742 | 0.348 | 0.865 | 0.805 | 0.706 | 0.501 | 0.688 | 0.587 | 0.354 | 0.285 | 0.608 | 0.516 | 0.444 | 0.489 | 0.876 | 0.937 | 0.714 | 0.737
COR-L23 | 1.1 | 1.15 | 0.949 | 0.561 | 1.01 | 1.07 | 0.979 | 0.934 | 0.443 | 0.474 | 0.402 | 0.372 | 0.547 | 0.558 | 0.522 | 0.476 | 0.969 | 1.14 | 1.07 | 0.877
NCI-H1755 | 1.01 | 1 | 0.889 | 0.571 | 0.901 | 0.883 | 0.778 | 0.58 | 0.743 | 0.667 | 0.748 | 0.565 | 0.756 | 0.768 | 0.671 | 0.699 | 1.02 | 0.985 | 0.829 | 0.895
LOU-NH91 | 0.822 | 0.735 | 0.573 | 0.408 | 0.73 | 0.886 | 0.834 | 0.738 | 0.827 | 0.829 | 0.771 | 0.7 | 0.793 | 0.817 | 0.77 | 0.686 | 0.702 | 0.745 | 0.749 | 0.621
EMC-BAC-2 | 1.1 | 1.14 | 1.07 | 0.649 | 0.946 | 0.922 | 0.813 | 0.664 | 0.967 | 0.978 | 0.838 | 0.653 | 0.863 | 0.799 | 0.78 | 0.673 | 1.13 | 1.14 | 1.15 | 1.08
ChaGo-K-1 | 1.19 | 1.32 | 0.987 | 0.826 | 0.896 | 0.924 | 0.838 | 0.721 | 0.526 | 0.51 | 0.491 | 0.495 | 0.894 | 0.867 | 0.881 | 0.904 | 1.3 | 1.17 | 0.816 | 0.454
NCI-H2023 | 0.959 | 0.965 | 0.734 | 0.313 | 0.838 | 0.804 | 0.578 | 0.183 | 0.211 | 0.2 | 0.215 | 0.148 | 0.514 | 0.532 | 0.38 | 0.376 | 0.985 | 1.06 | 0.895 | 0.716
EKVX | 0.971 | 0.958 | 0.675 | 0.377 | 0.855 | 0.88 | 0.721 | 0.438 | 0.318 | 0.334 | 0.249 | 0.195 | 0.326 | 0.398 | 0.275 | 0.289 | 0.859 | 1.05 | 0.934 | 0.65

— the supplement of paper PMC10307832
